Test results as given in PubChem BioAssay AID248 (DTP/NCI, 2004).
Values joined by “and” are separate entries in the source; they are usually repeats but may differ in a detail not shown here. Identical values can stand only once. Toxic doses and inconclusive results are not listed. Cut-off read from the data, not from the text of the source: active = T/C of 150% or more; inactive = T/C below 125%.

Tested on: L1210 leukemia ip in BDF1 mice, survival T/C
Experiment: NCI In Vivo Anticancer Drug Screen. Data for tumor model L1210 Leukemia (intraperitoneal) in B6D2F1 (BDF1) mice
Conditions: endpoint: mean survival time, higher = longer survival
Summary of the method: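 Value reflects the ratio of survival in compound-treated mice to survival in vehicle-treated controls, with both groups carrying the same transplanted tumor.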

[1] = dose: 100.0 mg/kg/injection, schedule: Q01DX001 (ip), vehicle: Klucel (hydroxypropylcellulose) (HPC)
[2] = dose: 100.0 mg/kg/injection, schedule: Q01DX009 (ip), vehicle: Klucel (hydroxypropylcellulose) (HPC)
[3] = dose: 100.0 mg/kg/injection, schedule: Q04DX003 (ip), vehicle: Klucel (hydroxypropylcellulose) (HPC)
[4] = dose: 200.0 mg/kg/injection, schedule: Q01DX001 (ip), vehicle: Klucel (hydroxypropylcellulose) (HPC)
[5] = dose: 200.0 mg/kg/injection, schedule: Q01DX009 (ip), vehicle: Klucel (hydroxypropylcellulose) (HPC)
[6] = dose: 200.0 mg/kg/injection, schedule: Q04DX003 (ip), vehicle: Klucel (hydroxypropylcellulose) (HPC)
[7] = dose: 400.0 mg/kg/injection, schedule: Q01DX001 (ip), vehicle: Klucel (hydroxypropylcellulose) (HPC)
[8] = dose: 400.0 mg/kg/injection, schedule: Q01DX009 (ip), vehicle: Klucel (hydroxypropylcellulose) (HPC)
[9] = dose: 400.0 mg/kg/injection, schedule: Q04DX003 (ip), vehicle: Klucel (hydroxypropylcellulose) (HPC)
[10] = dose: 100.0 mg/kg/injection, schedule: Q04DX003 (ip), vehicle: saline with Tween-80
[11] = dose: 200.0 mg/kg/injection, schedule: Q04DX003 (ip), vehicle: saline with Tween-80
[12] = dose: 400.0 mg/kg/injection, schedule: Q04DX003 (ip), vehicle: saline with Tween-80
[13] = dose: 100.0 mg/kg/injection, schedule: Q01DX001 (ip), vehicle: carboxymethylcellulose (CMC)
[14] = dose: 200.0 mg/kg/injection, schedule: Q01DX001 (ip), vehicle: carboxymethylcellulose (CMC)
[15] = dose: 400.0 mg/kg/injection, schedule: Q01DX001 (ip), vehicle: carboxymethylcellulose (CMC)
[16] = dose: 50.0 mg/kg/injection, schedule: Q04DX002 (ip), vehicle: saline with Tween-80
[17] = dose: 100.0 mg/kg/injection, schedule: Q04DX002 (ip), vehicle: saline with Tween-80
[18] = dose: 200.0 mg/kg/injection, schedule: Q04DX002 (ip), vehicle: saline with Tween-80
[19] = dose: 100.0 mg/kg/injection, schedule: Q01DX001 (ip), vehicle: saline
[20] = dose: 200.0 mg/kg/injection, schedule: Q01DX001 (ip), vehicle: saline
[21] = dose: 400.0 mg/kg/injection, schedule: Q01DX001 (ip), vehicle: saline
[22] = dose: 100.0 mg/kg/injection, schedule: Q01DX001 (ip), vehicle: other
[23] = dose: 200.0 mg/kg/injection, schedule: Q01DX001 (ip), vehicle: other
[24] = dose: 400.0 mg/kg/injection, schedule: Q04DX002 (ip), vehicle: saline with Tween-80
[25] = dose: 100.0 mg/kg/injection, schedule: Q01DX001 (ip), vehicle: saline with Tween-80
[26] = dose: 200.0 mg/kg/injection, schedule: Q01DX001 (ip), vehicle: saline with Tween-80
[27] = dose: 400.0 mg/kg/injection, schedule: Q01DX001 (ip), vehicle: saline with Tween-80

Measured: T/C

Cc1ncc(C(O)c2ccccc2)n1Cc1ccccc1 (stereo not drawn)
inactive: [1] 94 % of control | [2] 93 % of control and 107 % of control | [3] 106 % of control | [4] 100 % of control | [5] 93 % of control and 103 % of control | [6] 97 % of control | [7] 98 % of control | [8] 104 % of control and 89 % of control | [9] 99 % of control

CN1CCOC1=Nc1ccc(Cl)cc1
inactive: [10] 94 % of control | [11] 99 % of control | [12] 88 % of control

O=C(c1ccccc1[N+](=O)[O-])N(O)c1ccc(/C=C/c2ccccc2)cc1
inactive: [13] 93 % of control | [14] 95 % of control | [15] 95 % of control

O=C(/C=N/O)/C=N/O (tested in a mixture with another compound)
inactive: dose: 6.25 mg/kg/injection, schedule: Q01DX009 (ip), vehicle: saline 97 % of control | dose: 12.5 mg/kg/injection, schedule: Q01DX009 (ip), vehicle: saline 96 % of control | dose: 12.5 mg/kg/injection, schedule: Q04DX003 (ip), vehicle: saline 96 % of control | dose: 25.0 mg/kg/injection, schedule: Q01DX009 (ip), vehicle: saline 96 % of control | dose: 25.0 mg/kg/injection, schedule: Q04DX003 (ip), vehicle: saline 104 % of control

CCCCN(CCCC)S(=O)(=O)CCC
inactive: [16] 101 % of control | [17] 97 % of control | [18] 97 % of control

O=C(O)c1ccc(Oc2ccc(C(=O)O)cc2)cc1
inactive: [2] 103 % of control | [3] 97 % of control | [5] 109 % of control | [6] 100 % of control | [8] 100 % of control | [9] 105 % of control

C=CCc1ccc(OCC(N)=O)c(OC)c1
inactive: [10] 107 % of control | [11] 107 % of control | [12] 109 % of control

COC1OC2COc3ccccc3OC2C(N=Cc2ccccc2)C1O (stereo not drawn)
inactive: [10] 102 % of control | [11] 102 % of control | [12] 98 % of control

Cc1nc(N)[nH]c(=O)c1CCCNS(=O)(=O)c1ccc(CN)cc1
inactive: [19] 115 % of control | [20] 98 % of control | [21] 101 % of control

O=S(=O)(O)/[N+]([O-])=N/O
inactive: dose: 100.0 mg/kg/injection, schedule: Q04DX003 (ip), vehicle: saline sonified 94 % of control | dose: 200.0 mg/kg/injection, schedule: Q04DX003 (ip), vehicle: saline sonified 100 % of control | dose: 400.0 mg/kg/injection, schedule: Q04DX003 (ip), vehicle: saline sonified 95 % of control

Cc1cc(/C=C\c2ccccc2Cl)nc2cc(Cl)ccc12
inactive: dose: 100.0 mg/kg/injection, schedule: Q04DX003 (ip), vehicle: saline 102 % of control | dose: 200.0 mg/kg/injection, schedule: Q04DX003 (ip), vehicle: saline 98 % of control | dose: 400.0 mg/kg/injection, schedule: Q04DX003 (ip), vehicle: saline 102 % of control

O=C(Cc1ccccc1)OCC#CC#CCOC(=O)Cc1ccccc1
inactive: [2] 103 % of control | [3] 92 % of control | [5] 98 % of control | [6] 91 % of control | [8] 97 % of control | [9] 92 % of control

O=C(O)C1C2C=CC21 (stereo not drawn)
inactive: [22] 96 % of control | [23] 101 % of control | dose: 400.0 mg/kg/injection, schedule: Q01DX001 (ip), vehicle: other 102 % of control

O/N=C/c1cccc(CC(O)(C(F)(F)F)C(F)(F)F)n1
inactive: [16] 103 % of control | [1] 98 % of control | [17] 88 % of control | [4] 98 % of control | [18] 109 % of control | [7] 87 % of control | [24] 106 % of control

CSc1nc(N)nc2c1nnn2C1OC(CO)C(O)C1O (stereo not drawn)
inactive: [19] 105 % of control | [20] 105 % of control

O=C1CC(C(=O)O)C(C(=O)O)C1 (stereo not drawn)
inactive: [19] 91 % of control | [20] 91 % of control

CC(=O)O[C@H]1[C@H]2O[C@]23[C@@H]2CC[C@]4(O)C[C@@H](O)CC[C@]4(C)[C@H]2CC[C@]3(C)[C@H]1c1ccc(=O)oc1
inactive: dose: 10.0 mg/kg/injection, schedule: Q01DX001 (ip), vehicle: other 90 % of control | dose: 20.0 mg/kg/injection, schedule: Q01DX001 (ip), vehicle: other 100 % of control | dose: 40.0 mg/kg/injection, schedule: Q01DX001 (ip), vehicle: other 107 % of control | [22] 94 % of control | [23] 92 % of control

Cc1ccccc1N=Nc1c(O)n(-c2ccccc2)c(=S)n(-c2ccccc2)c1=O
inactive: dose: 37.5 mg/kg/injection, schedule: Q01DX001 (ip), vehicle: saline with Tween-80 99 % of control | dose: 75.0 mg/kg/injection, schedule: Q01DX001 (ip), vehicle: saline with Tween-80 90 % of control | dose: 150.0 mg/kg/injection, schedule: Q01DX001 (ip), vehicle: saline with Tween-80 99 % of control

CC(O)(c1ccccc1)c1ccccc1S(=O)(=O)Nc1ccccc1 (stereo not drawn)
inactive: [13] 101 % of control | [14] 93 % of control | [15] 95 % of control

NC(=O)C1OC(CO)C(O)C1O (stereo not drawn)
inactive: [10] 105 % of control | [11] 94 % of control | [12] 94 % of control

O=C(NCc1ccccc1)C(F)(F)F
inactive: [25] 102 % of control | [26] 102 % of control | [27] 100 % of control

CC(=O)OCCC/C(=C\c1ccc(C)cc1)[N+](=O)[O-]
inactive: [13] 88 % of control | [14] 88 % of control | [15] 88 % of control

CCOC(=O)c1cc2c(=O)c(C(=O)OCC)c[nH]c2o1
inactive: dose: 100.0 mg/kg/injection, schedule: Q04DX002 (ip), vehicle: Klucel (hydroxypropylcellulose) (HPC) 104 % of control | dose: 400.0 mg/kg/injection, schedule: Q04DX002 (ip), vehicle: Klucel (hydroxypropylcellulose) (HPC) 104 % of control

COc1cccc(NC(=O)c2cccc(C(=O)Nc3cccc(OC)c3)c2)c1
inactive: [2] 94 % of control | [5] 91 % of control | [8] 86 % of control

CC(C)=CCC/C(C)=C/CNc1ncnc2c1ncn2C1OC(CO)C(O)C1O (stereo not drawn)
inactive: dose: 100.0 mg/kg/injection, schedule: Q01DX005 (ip), vehicle: saline 95 % of control | dose: 200.0 mg/kg/injection, schedule: Q01DX005 (ip), vehicle: saline 94 % of control

CN(C)NC(=O)/C=C\C(=O)O
inactive: [17] 93 % of control | [18] 100 % of control | [24] 93 % of control

Cc1ncc(-c2ccc([N+](=O)[O-])cc2)o1
inactive: dose: 50.0 mg/kg/injection, schedule: Q04DX003 (ip), vehicle: Klucel (hydroxypropylcellulose) (HPC) 94 % of control | [3] 102 % of control | [6] 94 % of control

O=[N+]([O-])c1ccc(Cl)nc1
inactive: [19] 103 % of control | dose: 100.0 mg/kg/injection, schedule: Q01DX009 (ip), vehicle: saline sonified 100 % of control | [20] 101 % of control | dose: 200.0 mg/kg/injection, schedule: Q01DX009 (ip), vehicle: saline sonified 104 % of control | [21] 103 % of control

C=CCN(CC=C)/N=N/c1[nH]ncc1C(=O)OCC
inactive: [25] 100 % of control | dose: 100.0 mg/kg/injection, schedule: Q01DX009 (ip), vehicle: saline with Tween-80 106 % of control | [26] 92 % of control | dose: 200.0 mg/kg/injection, schedule: Q01DX009 (ip), vehicle: saline with Tween-80 100 % of control | [27] 101 % of control | dose: 400.0 mg/kg/injection, schedule: Q01DX009 (ip), vehicle: saline with Tween-80 104 % of control

O=CNc1ncnn1C(=S)NCc1ccccc1
inactive: dose: 50.0 mg/kg/injection, schedule: Q01DX009 (ip), vehicle: saline 105 % of control | dose: 100.0 mg/kg/injection, schedule: Q01DX009 (ip), vehicle: saline 111 % of control

CC1(c2ccco2)CCC(=O)CC1=O (stereo not drawn)
inactive: [3] 101 % of control | [6] 98 % of control | [9] 98 % of control
